# Patent US20240247301A1, “DIAGNOSTIC ASSAY FOR CLASSIC INBORN GALACTOSEMIA” (Ohio State Innovation Foundation, priority 2022, published 2024)
# Values joined by “and” are separate entries in the source; they are usually repeats but may differ in a detail not shown here. Equal values may be shown once. Read-outs that look alike come from different tables or passages of the source.
# What was measured:
# [1] = molecular target: T1, Duarte GalT (galactose-1-phosphate uridylyltransferase, Duarte variant) (Homo sapiens, UniProt P07902, N314D); assay: Duarte GalT-YidA coupled assay (SUMO tag removed from YidA); type: biochemical
# T1 construct: coupled to YidA or PGM-G6PDH (helper enzymes)
# T1 sequence (P07902 whole entry N314D): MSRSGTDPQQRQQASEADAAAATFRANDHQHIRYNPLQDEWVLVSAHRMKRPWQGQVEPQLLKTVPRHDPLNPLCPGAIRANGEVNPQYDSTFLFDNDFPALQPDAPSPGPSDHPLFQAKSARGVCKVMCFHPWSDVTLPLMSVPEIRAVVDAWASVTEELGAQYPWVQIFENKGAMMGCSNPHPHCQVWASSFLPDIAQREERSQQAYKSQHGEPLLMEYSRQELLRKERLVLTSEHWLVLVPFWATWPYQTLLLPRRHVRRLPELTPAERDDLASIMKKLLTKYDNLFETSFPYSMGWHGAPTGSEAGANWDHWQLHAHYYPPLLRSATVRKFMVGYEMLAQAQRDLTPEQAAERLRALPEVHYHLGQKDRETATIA
# Description: Next, it was sought to obtain recombinant GalT for proof-of-concept assays. The ready availability of the Duarte GalT clone from Addgene (GALTA-c001) led to use of this enzyme in the current studies.
# (§1) Transformation and overexpression of GalT were performed as described elsewhere (Lai et al. 2021). For purification, a single bacterial colony expressing GalT was used to inoculate 2.5 mL of Dynamite growth medium (Taylor et al. 2017) supplemented with […] kanamycin and grown overnight at 37° ° C. with shaking. This saturated overnight culture was used to seed 250 mL of fresh dynamite medium containing the antibiotic. […]
# (§2) Recombinant GalT was purified using the same protocol as that described above for YidA. The concentration of the His6-tagged GalT was determined using a molar extinction coefficient (85,620 M^−1 cm^−1) at 280 nm, and the final preparation was stored at −80° C. in small aliquots, which were subsequently thawed immediately before use in biochemical assays.
# These 2-μL aliquots were added to a 384-well plate which were pre-dispensed to test wells 18 μL of water and 5 μL of malachite green reagent. […] To determine the Km and kcat values, the initial velocity calculated at each substrate concentration was subject to the Michaelis-Menten curve-fitting option in Kaleidagraph (Synergy Software).
# [2] = molecular target: T1, Duarte GalT (galactose-1-phosphate uridylyltransferase, Duarte variant); assay: Duarte GalT-PGM-G6PDH coupled assay (traditional); type: biochemical
# Description: It was sought to compare the Duarte GalT activity determined using the YidA assay versus the existing method. To this end, measurements were conducted using the traditional PGM-G6PDH coupled assay (McCorvie et al. 2013). By titrating the coupled enzymes, the threshold that permits the most sensitive detection was first determined.
# as §1, §2
# An NADH standard curve (data not shown) was generated using relative fluorescence units (RFUs) versus different concentrations of NADH and used as a reference for calculating the NADH produced from the Duarte GalT-PGM-G6PDH coupled assay. […]
# [3] = test system: wild-type GalT (galactose-1-phosphate uridylyltransferase); details: cited from earlier work; for Km: read-out: Km (for Gal-1-P)
# [4] = molecular target: Salmonella typhimurium YidA, recombinant wild type, SEQ ID NO: 1 (Salmonella enterica, UniProt Q8ZKY8); assay: YidA phosphatase activity (malachite green), dephosphorylation of Glc-1-P; type: biochemical
# Salmonella typhimurium YidA, recombinant wild type, SEQ ID NO: 1, sequence (Q8ZKY8 entry or part of it): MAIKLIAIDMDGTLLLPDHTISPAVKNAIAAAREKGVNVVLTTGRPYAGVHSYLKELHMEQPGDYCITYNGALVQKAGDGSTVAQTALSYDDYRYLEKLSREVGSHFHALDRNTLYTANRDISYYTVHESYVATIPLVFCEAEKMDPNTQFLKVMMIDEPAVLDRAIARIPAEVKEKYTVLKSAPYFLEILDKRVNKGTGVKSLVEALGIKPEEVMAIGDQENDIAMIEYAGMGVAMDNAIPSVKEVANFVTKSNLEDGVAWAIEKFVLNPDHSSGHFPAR
# Description: The sugar phosphate phosphatase produced from an engineered cell can be identical to a naturally occurring one, such as YidA or YihX, but placed within a cell in which it is not naturally produced. Examples of this approach are given throughout. The sequence for YidA from Salmonella typhimurium can be found, for example, in NC_492731.1. This sequence corresponds to SEQ ID NO: 1. The gene ID is 1255358. The sequence for YihX from Salmonella typhimurium can be found, for example, in NC_462906.1. This corresponds to SEQ ID NO: 2. The gene ID is 1255552. In one example, genes encoding these proteins can be placed within a cell in which it is not naturally occurring.
# Nearly homogeneous recombinant Salmonella YidA by overexpressing it in E. coli SixPack cells were obtained (Lipinszki et al. 2018) (FIG. 3A). N-terminal fusions with a small ubiquitin-like modifier (SUMO) domain were engineered to enhance solubility (Marblestone et al. 2006) and a His6 tag to facilitate affinity purification (FIG. 3A). […] Since YidA is a Mg^2+-dependent phosphatase, its activity with Glc-1-P in the presence of 0-5 mM MgCl2 was first tested and determined that 3 mM MgCl2 was optimal (FIG. 5). […]
# [5] = molecular target: Salmonella typhimurium YihX, recombinant wild type, SEQ ID NO: 2 (Salmonella enterica, UniProt Q7CPC8); assay: Kinetic studies of YihX with Glc 1-P and Gal 1-P; type: biochemical; details: YihX refolded after denaturing purification
# Salmonella typhimurium YihX, recombinant wild type, SEQ ID NO: 2, sequence (Q7CPC8 entry or part of it): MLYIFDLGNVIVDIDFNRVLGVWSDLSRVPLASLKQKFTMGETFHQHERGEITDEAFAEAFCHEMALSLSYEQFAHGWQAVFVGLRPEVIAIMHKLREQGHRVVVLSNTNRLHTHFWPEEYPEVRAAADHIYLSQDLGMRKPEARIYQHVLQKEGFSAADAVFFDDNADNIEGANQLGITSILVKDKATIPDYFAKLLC
# Description: Salmonella YihX was purified after overexpression in E. coli BL21 (DE3) pLysS cells. His6-YihX was purified under denaturing conditions using immobilized metal-affinity chromatography. Following purification, YihX was refolded by stepdown dialysis to remove the denaturant.
# E. coli YidA = details: Kuznetsova et al. 2006; cited from earlier work
# [6] = mean ± SD of three independent trials
# [7] = McCorvie et al., 2013 (text: 2014)
Structure (SMILES),"kcat [1, 6]","kcat ([1]; single trials, ± curve-fit error, pH 8.0, 37° C., 1 mM UDP-glucose)","kcat [2, 6]","kcat ([2]; single trials, ± curve-fit error, pH 8, 37° C., 0.8 mM UDP-glucose)","kcat ([3]; Crews et al., 2000)","kcat [3, 7]","kcat ([3]; Tang et al., 2012, table value calculated from reported Vmax with 44 kDa)","Km ([3]; Crews et al., 2000)","Km [3, 7]","Km ([3]; Tang et al., 2012)",kcat ([4]; mean ± SE of two independent trials),"kcat ([4]; single trials, ± curve-fit error, pH 8, 37° C., 3 mM MgCl2)",specificity for Glc 1-P over Gal 1-P [5],Km (E. coli YidA),kcat (E. coli YidA)
"O=P(O)(O)O[C@H]1O[C@H](CO)[C@H](O)[C@H](O)[C@H]1O [Gal-1-P, galactose-1-phosphate]",851 ± 80 min⁻¹ and 844 ± 45 min⁻¹,851 ± 80 min⁻¹ and 796 ± 63 min⁻¹ and 884 ± 70 min⁻¹,259 ± 7 min⁻¹,267 ± 12 min⁻¹ and 258 ± 4 min⁻¹ and 253 ± 12 min⁻¹,"5,880 min^−1",816 min⁻¹,"2,400 min^−1 and 2,122* min^−1",400 µM,290 µM,1250 µM,–,–,–,–,–
"O=P(O)(O)O[C@H]1O[C@H](CO)[C@@H](O)[C@H](O)[C@H]1O [Glc-1-P, α-D-glucose-1-phosphate]",–,–,–,–,–,–,–,–,–,–,853 ± 21 min⁻¹,832 ± 64 min⁻¹ and 873 ± 63 min⁻¹,36 fold,210 µM,1200 min⁻¹
